Assay results published in patent publication US8106155B2, “Test kit for determining process for determining antibiotics containing a beta-lactam ring in a biological fluid” (Neogen Corporation, priority 1998, dated 2012).
Where two headings read alike, the source gives them in different places.

Tests used:
[1] = molecular target: soluble exocellular D-alanyl-D-alanine carboxypeptidase (enzyme R39) (Actinomadura sp., UniProt P39045); settings: cited from earlier work
[2] = molecular target: T1, BlaR-CTD receptor in the form of two fusion proteins with alkaline phosphatase and peroxidase (Bacillus licheniformis, UniProt P12287); assay: Example 3: BlaR-CTD fusion proteins with alkaline phosphatase and peroxidase, cephalosporin C microplate, milk; type: binding; settings: absorbance at 405 nm, 47° C., at the control thresholds required by the US authorities
T1 construct: uses the BlaR-CTD receptor in the form of two fusion proteins with alkaline phosphatase and peroxidase, respectively; alkaline phosphatase, chemically coupled (Boehringer-Mannheim 1464752); peroxidase, chemically coupled (Boehringer-Mannheim 1428861)
Description: This example illustrates the detection in milk of 3 antibiotics containing a β-lactam ring which are controlled by the health authorities. The test described in this example uses the BlaR-CTD receptor in the form of two fusion proteins with alkaline phosphatase and peroxidase, respectively, and uses a support in the form of a microplate.
Polystyrene microplates with high protein adsorption, of the brand name NUNK (Immuno Plate: Maxisorp type) or of the brand name GREINER (microlon 600, reference 705071), are used. The microplate cuvettes are washed with 150 mM, pH 7.2 PBS buffer. Next, an aliquot of the solution prepared in Example 3.3.1. is incubated for 24 hours at 4° C. in the cuvettes. After incubation, the cuvettes are washed three times with 150 mM, pH 7.2 PBS buffer, 0.1% Tween-20. The tube is then saturated for two hours at 20° C. with 150 mM, pH 7.2 PBS saturation buffer, 5% BSA. After washing three times with washing buffer, the tubes are dried and stored at 4° C. away from moisture.
For the cuvettes intended for the BlaR-CTD-alkaline phosphatase recognition agent, the washing buffer used is 1 M, pH 9.8 diethanolamine, 0.5 mM MgCl2: for the cuvettes intended for the BlaR-CTD-peroxidase recognition agent, the washing buffer used is 50 mM, pH 5 potassium phosphate.
1.4 picomol of labelled recognition agent are incubated in the presence of 100 μl of doped milk for 5 minutes at 47° C. The milk is transferred using a pipette into a cuvette which has been pretreated as indicated in Example 2.3. The milk is then incubated for 2 minutes at 47° C. […] The plate is then placed in an automatic spectrophotometer for ELISA plates, the wavelength being set at 405 nm.

[3] = molecular target: T2, BlaR-CTD receptor (Bacillus licheniformis, UniProt P12287); assay: 20-minute test: BlaR-CTD coupled to gold beads, membrane test device, milk; type: binding; settings: 47° C.; for Intensity 1st band: 20-minute test, scale 0 to 10, reference band 6
T2 construct: uses the BlaR-CTD receptor coupled to gold beads
Procedure: This example illustrates the detection in milk of antibiotics containing a β-lactam ring, which are controlled by the health authorities. The test described in this example uses the BlaR-CTD receptor coupled to gold beads which serve as labelling agents, and uses a support in the form of a test device comprising a solid support to which membranes are attached.
6 samples of fresh milk containing 0; 20; 30; 40; 50 and 60 ppb of ceftiofur, respectively, are prepared. Each of these solutions is then analyzed in the following way.
A 200 μl aliquot sample of milk and 45.27 μl of solution prepared in Example 1.1.3 are taken and placed in a glass flask. This mixture is incubated for 18 minutes at 47° C. A test device is taken and placed vertically in the glass flask such that the first end of the test device is in contact with the mixture and such that the second end rests on the wall of the glass flask. The mixture is left to migrate on the test device, while incubating the assembly for 2 minutes at 47° C.
An intensity value ranging from 0 to 10 is attributed to the bands detected, the value 10 being given to the most intense band and the value 0 being given to the least intense band. According to this scale, a value of 6 is assigned to the reference band. The intensity of the signal observed in the first band is inversely proportional to the amount of ceftiofur present in the sample.
In this example, when the first band has an intensity less than that of the second band, the test is considered as being positive.

T2 sequence (P12287 354-601): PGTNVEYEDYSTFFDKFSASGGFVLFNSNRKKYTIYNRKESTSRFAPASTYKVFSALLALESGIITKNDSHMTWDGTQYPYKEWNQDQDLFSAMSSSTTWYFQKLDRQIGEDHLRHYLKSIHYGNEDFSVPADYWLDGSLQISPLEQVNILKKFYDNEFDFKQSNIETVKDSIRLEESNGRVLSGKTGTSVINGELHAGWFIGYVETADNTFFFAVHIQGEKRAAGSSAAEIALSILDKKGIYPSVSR
soluble exocellular D-alanyl-D-alanine carboxypeptidase (enzyme R39), sequence (P39045 50-515): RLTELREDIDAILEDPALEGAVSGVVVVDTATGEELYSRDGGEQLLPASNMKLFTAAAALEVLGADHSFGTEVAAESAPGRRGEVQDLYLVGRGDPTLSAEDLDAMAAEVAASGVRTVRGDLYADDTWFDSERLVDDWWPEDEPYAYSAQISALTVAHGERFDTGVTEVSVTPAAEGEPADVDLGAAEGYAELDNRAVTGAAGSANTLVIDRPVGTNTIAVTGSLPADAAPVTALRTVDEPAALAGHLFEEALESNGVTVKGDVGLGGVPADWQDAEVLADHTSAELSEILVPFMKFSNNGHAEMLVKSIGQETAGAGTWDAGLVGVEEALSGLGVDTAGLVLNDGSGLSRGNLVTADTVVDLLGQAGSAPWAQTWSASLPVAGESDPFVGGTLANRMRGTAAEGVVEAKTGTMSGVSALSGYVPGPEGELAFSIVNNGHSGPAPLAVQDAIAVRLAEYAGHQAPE
T1 sequence (P12287 354-601): as the sequence (P12287 354-601) above

SMILES	concentration determined in milk ([1]; total incubation time of 5 minutes) [ppb]	concentration determined in milk ([1]; total incubation time of 15 minutes)	concentration detected in milk [2] [ppb]	Intensity 1st band ([3]; 20 ppb ceftiofur in milk)	Intensity 1st band ([3]; 30 ppb ceftiofur in milk)	Intensity 1st band ([3]; 40 ppb ceftiofur in milk)	Intensity 1st band ([3]; 50 ppb ceftiofur in milk)	Intensity 1st band ([3]; 60 ppb ceftiofur in milk)	concentration detected in a sample of milk ([3]; test in 20 minutes, positive when 1st band less intense than 2nd band) [ppb]
CC1(C)S[C@@H]2[C@H](NC(=O)Cc3ccccc3)C(=O)N2[C@H]1C(=O)O [penicillin G]	10	about 2.5 ppb	5						
CO/N=C(\C(=O)N[C@@H]1C(=O)N2C(C(=O)O)=C(CSC(=O)c3ccco3)CS[C@H]12)c1csc(N)n1 [ceftiofur]			50	6	5	4	3	3	30
